Laboratory results published in US11109593B2, “Isoxazolin-5-one derivative and herbicide containing same as active ingredient” (HOKKO CHEMICAL INDUSTRY CO., LTD., priority 2017, dated 2021).

What was measured:
Assay type in all cases: in vivo
Scirpus juncoides [1] = experiment: Test Example 1: herbicidal effect test by treatment of rice paddy soil (immediately after seeding); conditions: 120 g/10a active ingredient, dry weight vs untreated area, 14 days after treatment
Protocol: (§1) Herbicidal Effect Test by Treatment of Rice Paddy Soil
(§2) Wagner pots with an area of 1/10000 ares were filled with a paddy soil, and after adding water, a compound fertilizer (N:P:K=17:17:17) was added, followed by soil puddling. Then, Echinochloa crus-galli, broad leaf weeds (Lindernia pyxidaria and Monochoria vaginalis) and Scirpus juncoides, 30 seeds each, were sown in a depth of 0 to 1 cm. Water was poured immediately after seeding, and the water depth was kept at about 3 cm. The subsequent management was conducted in a glass greenhouse. Immediately after that, emulsions prepared using the compounds in Table 3 below according to Formulation Example 5 were diluted with water, and a certain amount of the water-diluted agent solutions were dropped. The converted amount of the applied active ingredient corresponded to 120 g per 10 ares.
(§3) This test was conducted in a double system per one agent solution concentration area, and the herbicidal rates (%) were determined by the following equation (Math. 1) on 14 days after the treatment with the agents. Herbicidal Rate (%)={1-(Average Dry Weight (g) of Plant of Treated Area)/(Average Dry Weight (g) of Plant of Untreated Area)}×100 [Math. 1]
(§4) The compound numbers in Table 3 are the same as those in Table 1 and Table 2 above.

[2] = system: broad leaf weeds (Lindernia pyxidaria and Monochoria vaginalis); experiment: as above; conditions: 120 g/10a active ingredient, dry weight vs untreated area, 14 days after treatment
Protocol: as §1, §2, §3, §4

Echinochloa crus-galli [3] = experiment: as above; conditions: 120 g/10a active ingredient, dry weight vs untreated area, 14 days after treatment
Protocol: as §1, §2, §3, §4

Scirpus juncoides [4] = experiment: Test Example 2: herbicidal effect test by treatment during growing period in paddy rice cultivation (seven days after seeding); conditions: 120 g/10a active ingredient, assessed 14 days after treatment, dry weight vs untreated area
Protocol: as §3
(§5) Herbicidal Effect Test by Treatment During Growing Period in Paddy Rice Cultivation
as §2, with “was mixed,” for “was added,”, “greenhouse. Emulsions” for “greenhouse. Immediately after that, emulsions”, “Table 4” for “Table 3”, “with water seven days after seeding,” for “with water,”, “ares. The test was conducted in a double system per one agent solution concentration area, and the herbicidal rates (%) were determined by the equation (Math. 1) on 14 days after the treatment with the agents. […] The compound numbers in Table 4 are the same as those in Table 1 and Table 2 above.” for “ares.”

[5] = system: broad leaf weeds (Lindernia pyxidaria and Monochoria vaginalis); experiment: as above; conditions: 120 g/10a active ingredient, assessed 14 days after treatment, dry weight vs untreated area
Protocol: as §3, §5
as §2, with “was mixed,” for “was added,”, “greenhouse. Emulsions” for “greenhouse. Immediately after that, emulsions”, “Table 4” for “Table 3”, “with water seven days after seeding,” for “with water,”, “ares. The test was conducted in a double system per one agent solution concentration area, and the herbicidal rates (%) were determined by the equation (Math. 1) on 14 days after the treatment with the agents. […] The compound numbers in Table 4 are the same as those in Table 1 and Table 2 above.” for “ares.”

Echinochloa crus-galli [6] = experiment: as above; conditions: 120 g/10a active ingredient, assessed 14 days after treatment, dry weight vs untreated area
Protocol: as §3, §5
as §2, with “was mixed,” for “was added,”, “greenhouse. Emulsions” for “greenhouse. Immediately after that, emulsions”, “Table 4” for “Table 3”, “with water seven days after seeding,” for “with water,”, “ares. The test was conducted in a double system per one agent solution concentration area, and the herbicidal rates (%) were determined by the equation (Math. 1) on 14 days after the treatment with the agents. […] The compound numbers in Table 4 are the same as those in Table 1 and Table 2 above.” for “ares.”

Row | Structure (SMILES) | Herbicidal rate (%) Scirpus juncoides (Scirpus juncoides [1]) [%] | Herbicidal rate (%) Lindernia pyxidaria [2] [%] | Herbicidal rate (%) Monochoria vaginalis [2] [%] | Herbicidal rate (%) Echinochloa crus-galli (Echinochloa crus-galli [3]) [%] | Herbicidal rate (%) Scirpus juncoides (Scirpus juncoides [4]) [%] | Herbicidal rate (%) Lindernia pyxidaria [5] [%] | Herbicidal rate (%) Monochoria vaginalis [5] [%] | Herbicidal rate (%) Echinochloa crus-galli (Echinochloa crus-galli [6]) [%]
1 | Cc1c(Cc2ccccc2NS(=O)(=O)C(F)(F)F)c(=O)on1Cc1cccs1 [Compound 1-231] | 80 | 80 | 90 | 90 | 60 | 40 | 40 | 60
2 | Cc1c(Cc2ccccc2NS(=O)(=O)C(F)(F)F)c(=O)on1Cc1ccc(C#N)cc1 [Compound 1-189] | 90 | 100 | 90 | 90 | 80 | 80 | 80 | 60
3 | Cc1c(Cc2ccccc2NS(=O)(=O)C(F)(F)F)c(=O)on1C(C)c1ccccc1Cl (stereo not drawn) [Compound 1-205] | 90 | 100 | 100 | 100 | 80 | 90 | 90 | 50
4 | Cc1c(Cc2ccccc2N(S(=O)(=O)C(F)(F)F)S(=O)(=O)C(F)(F)F)c(=O)on1Cc1ccc(C#N)cc1 [Compound 1-1017] | 90 | 60 | 90 | 40 | 80 | 80 | 80 | 0
5 | COc1ccc(Cn2oc(=O)c(Cc3ccccc3NS(=O)(=O)C(F)(F)F)c2C)cc1 [Compound 1-195] | 90 | 70 | 60 | 90 | 80 | 40 | 40 | 80
6 | Cc1c(Cc2ccccc2N(S(=O)(=O)C(F)(F)F)S(=O)(=O)C(F)(F)F)c(=O)on1C(C)c1ccc(F)cc1F (stereo not drawn) [Compound 1-1037] | 90 | 70 | 60 | 90 | 60 | 60 | 50 | 90
7 | Cc1c(Cc2ccccc2N(S(=O)(=O)C(F)(F)F)S(=O)(=O)C(F)(F)F)c(=O)on1Cc1ccc(C(C)(C)C)cc1 [Compound 1-1019] | 40 | 60 | 60 | 40 | 0 | 40 | 40 | 0
8 | CCOC(=O)N(c1ccccc1Cc1c(C)n(CC(C)C)oc1=O)S(=O)(=O)C(F)(F)F [Compound 1-608] | 90 | 70 | 80 | 70 | 80 | 60 | 80 | 90
9 | Cc1c(Cc2ccccc2N(S(=O)(=O)C(F)(F)F)S(=O)(=O)C(F)(F)F)c(=O)on1CC(F)(F)c1ccccc1 [Compound 1-1047] | 90 | 100 | 80 | 90 | 80 | 90 | 80 | 80
10 | Cc1c(Cc2ccccc2N(S(=O)(=O)C(F)(F)F)S(=O)(=O)C(F)(F)F)c(=O)on1C(C)c1cccc(Cl)c1 (stereo not drawn) [Compound 1-1033] | 90 | 100 | 100 | 90 | 80 | 80 | 80 | 70
11 | Cc1c(Cc2ccccc2NS(=O)(=O)C(F)(F)F)c(=O)on1C(C)c1ccc(F)cc1 (stereo not drawn) [Compound 1-204] | 90 | 90 | 90 | 100 | 80 | 80 | 80 | 80
12 | Cc1c(Cc2ccccc2NS(=O)(=O)C(F)(F)F)c(=O)on1Cc1ccc(F)cc1F [Compound 1-199] | 90 | 100 | 100 | 100 | 80 | 80 | 80 | 90
13 | COCCn1oc(=O)c(Cc2ccccc2N(S(=O)(=O)C(F)(F)F)S(=O)(=O)C(F)(F)F)c1C [Compound 1-996] | 90 | 80 | 80 | 90 | 90 | 70 | 80 | 70
14 | Cc1c(Cc2ccccc2N(S(=O)(=O)C(F)(F)F)S(=O)(=O)C(F)(F)F)c(=O)on1Cc1ccc(F)cc1F [Compound 1-1026] | 90 | 100 | 100 | 100 | 80 | 100 | 90 | 60
15 | Cc1c(Cc2ccccc2N(C(=O)OCC(C)C)S(=O)(=O)C(F)(F)F)c(=O)on1Cc1ccccc1 [Compound 1-677] | 90 | 100 | 100 | 90 | 90 | 80 | 80 | 70
16 | Cc1c(Cc2ccccc2N(S(=O)(=O)C(F)(F)F)S(=O)(=O)C(F)(F)F)c(=O)on1Cc1cccc(F)c1 [Compound 1-1013] | 90 | 90 | 90 | 40 | – | – | – | –
17 | Cc1c(Cc2ccccc2N(S(=O)(=O)C(F)(F)F)S(=O)(=O)C(F)(F)F)c(=O)on1Cc1ccc(C(F)(F)F)cc1 [Compound 1-1021] | 60 | 40 | 40 | 40 | – | – | – | –
18 | Cc1c(Cc2ccccc2N(S(=O)(=O)C(F)(F)F)S(=O)(=O)C(F)(F)F)c(=O)on1Cc1ccc(F)c(Cl)c1 [Compound 1-1029] | 60 | 60 | 60 | 60 | – | – | – | –
